Patent US20210363495A1, “CULTURE MEDIA FOR PLURIPOTENT STEM CELLS” (Yeda Research and Development Co. Ltd., priority 2019, published 2021)

Columns and labels:
[1] = test system: Tet-OFF-METTL3 hESCs (WIBR3, clone W3G4); assay: Pluripotency (OCT4+) maintenance of Tet-OFF-METTL3 hESCs in the presence of DOX; type: cell-based, human; conditions: for expanding METTL3 depleted cells when substituted for TNKi: optimized ENHSM conditions without TNKi, DOX up to 4 passages; for expansion of Tet-OFF-METTL3 on DOX: individual small molecule supplemented to NHSM, Geltrex coated plates, no MEFs
Excerpt: FIGS. 1A-I Defining enhanced human naive conditions compatible with expanding METTL3 depleted PSCs. A. Strategy for generating human ESCs with TET-OFF regulated expression of METTL3 m^6A methyltransferase enzyme. B. Western blot analysis for correctly engineered human ESCs with TET-OFF METTL3 regulation, before and after DOX treatment. C. Representative images for human METTL3 TET-OFF engineered cells in different conditions with or without DOX addition. […] D. Scheme depicting strategy for conducting a screen for identifying a small molecule or cytokine additive to previously described human naïve NHSM conditions that allow maintain pluripotency in TET-OFF METTL3 human stem cells after adding DOX. E. W3G4 cells were maintained in the presence of DOX for up to 4 passages in different conditions and stained for OCT4 to quantify percentage of cells that retained their pluripotency. […] F. OCT4+ pluripotency maintenance in NHSM conditions supplemented with various TNK inhibitors and DOX to repress METTL3 expression. G. Quantification of ΔPE-OCT4-GFP knock in naïve pluripotency reporter, in variety of primed (red) and naïve conditions (blue). Mean fluorescence intensity values (MFI) are indicated. H. Quantification of ΔPE-OCT4-GFP knock in naïve pluripotency reporter in variety of conditions with various concentrations of ACTIVIN A recombinant cytokine. […] I. Representative phase contrast images in human ESCs expanded in NHSM+TNKi conditions showing their maintenance of pluripotent domed-like morphology even in the presence of FGFRi.
In order to identify culture conditions which capture human naïve PSC, the present inventors looked for agents which are capable of maintaining stem cells in a pluripotent state in the absence of defined epigenetic repressors. Human knock-in WIBR3 hESC lines with conditional inducible ablation expression of METTL3 were engineered (FIG. 1A). This was carried out by introducing an exogenous METTL3 transgene under the regulation of Tet-OFF promoter (Liao et al., 2015), followed by CRISPR/Cas9 mediated ablation of both endogenous human METTL3 alleles. Two resultant clones were validated for METTL3 expression only from the exogenous allele, which can be shut off by addition of DOX to the media (called Tet-OFF-METTL3 lines) (FIG. 1B).
The latter further support rewiring toward naïve pluripotency in NHSM conditions. […] Candidate molecules were tested for the ability to enrich NHSM conditions that allow Tet-OFF-METTL3 to be maintained on Geltrex coated plates in the presence of DOX.
NHSM conditions were supplemented with individual small molecules (FIG. 1D). […] IWR1 is a WNT inhibitor (WNTi) small molecule that stabilizes AXIN protein in the cytoplasm by inhibiting Tankyrase enzyme (abbreviated herein as TNK inhibitor—TNKi).

[2] = test system: human ESCs; assay: Domed morphology under TGF/ACTIVIN signalling blockade; type: cell-based
Excerpt: FIGS. 1A-I Defining enhanced human naive conditions compatible with expanding METTL3 depleted PSCs. A. Strategy for generating human ESCs with TET-OFF regulated expression of METTL3 m^6A methyltransferase enzyme. B. Western blot analysis for correctly engineered human ESCs with TET-OFF METTL3 regulation, before and after DOX treatment. C. Representative images for human METTL3 TET-OFF engineered cells in different conditions with or without DOX addition. […] E. W3G4 cells were maintained in the presence of DOX for up to 4 passages in different conditions and stained for OCT4 to quantify percentage of cells that retained their pluripotency. […] G. Quantification of ΔPE-OCT4-GFP knock in naïve pluripotency reporter, in variety of primed (red) and naïve conditions (blue). Mean fluorescence intensity values (MFI) are indicated. H. Quantification of ΔPE-OCT4-GFP knock in naïve pluripotency reporter in variety of conditions with various concentrations of ACTIVIN A recombinant cytokine. […]
FIGS. 3A-I. Defining enhanced human naive conditions compatible with blocking TGF/ACTIVIN signaling. […] F. Mass spectrometry-based quantification of m^6A on isolated mRNA from the indicated cell lines and conditions. […]

[3] = test system: WIBR2 hESC carrying MECP2 fluorescent reporter alleles; assay: X chromosome reactivation, MECP2 two-colour reporter FACS; type: cell-based, human; conditions: added to ENHSM without ERKi (0ENHSM) or with 0.33 microM ERKi (tENHSM)
Excerpt: FIGS. 17A-D. Chromosome X reactivation status and DNA methylation profile in ENHSM based conditions. A. Schematic and FACS results following using WIBR2 (person 46XX) 29-9 hESC line that carries GFP and mCherry on each of the X chromosomes in the MECP2 locus. Parental 29-9 clone has the X chromosome carrying mCherry allele in the active state, and thus is positive only for mCherry and negative for GFP in the primed state. Upon transfer to ENHSM conditions, all cells turn on both X chromosomes and thus become double positive for both fluorescent markers (GFP and mCherry). After transfer into primed conditions (i.e. repriming), cells start to inactivate the X chromosome again. B. RNA-FISH analysis for ATRX transcription in primed and ENHSM WIBR3 cells. Note ATRX is active on both X chromosomes only in ENHSM conditions. C. Western blot analysis for DNA methylation regulators, DNMT1 and UHRF enzymes. DNMT1 protein levels are maintained in all conditions. […] D. Global methylation histogram as calculated from primed samples, and naïve samples that were maintained in various conditions, including titrated ERKi supplementation, along with previously published Reset-naïve and primed samples (Takashima et al), and human ICM samples (Smith et al, Nature 2014, Guo et al, Nature 2014). […]

## COc1cccc(-c2cn(-c3ccc(CCN4CCC(O)CC4)cc3)c3ncnc(N)c23)c1 [CGP77675]
[1]; TNKi supplemented optimized NHSM, no ACTIVIN A, on DOX
  maintenance of OCT4+ cells without ACTIVIN A: dramatically maintained the stability of dome like cells that were uniformly OCT4+

## Cc1cccc(-c2nn(C(=S)Nc3ccccc3)cc2-c2ccnc3ccccc23)n1 [Condition A83-01]
[2]; cells in ENHSM
  domed morphology after TGFRi: maintained
[2]; cells in NHSM+TNKi
  domed morphology after TGFRi: lose their pluripotent dome-like shaped morphology and differentiate

## C[C@H](NC(=O)Cc1cc(F)cc(F)c1)C(=O)N[C@@H]1C(=O)N(C)c2ccccc2-c2ccccc21 [DBZ]
[3]
  maintenance of pre-X inactivation naïve state when ERKi is omitted or depleted: allowed robust and feeder free maintenance of human naïve cells

## O=C1Cc2c([nH]c3ccc(Br)cc23)-c2ccccc2N1 [Kenpaullone]
[1]
  expanding METTL3 depleted cells when substituted for TNKi: none of them allowed expanding METTL3 depleted cells in vitro

## CCCC(CCC)C(=O)O [VPA]
[1]
  expanding METTL3 depleted cells when substituted for TNKi: none of them allowed expanding METTL3 depleted cells in vitro

## Oc1nc(-c2ccc(C(F)(F)F)cc2)nc2c1CSCC2 [XAV939]
[1]
  expansion of Tet-OFF-METTL3 on DOX: yielded a similar effect

## O=C(Nc1cccc2cccnc12)c1ccc(N2C(=O)[C@@H]3[C@H](C2=O)[C@H]2C=C[C@@H]3C2)cc1 [exo-IWR1]
[1]
  expansion of Tet-OFF-METTL3 on DOX: failed to do so

B1: ACTIVIN A: recombinant cytokine, activator of TGF/ACTIVIN pathway (protein)
chain: MPLLWLRGFLLASCWIIVRSSPTPGSEGHSAAPDCPSCALAALPKDVPNSQPEMVEAVKKHILNMLHLKKRPDVTQPVPKAALLNAIRKLHVGKVGENGYVEIEDDIGRRAEMNELMEQTSEIITFAESGTARKTLHFEISKEGSDLSVVERAEVWLFLKVPKANRTRTKVTIRLFQQQKHPQGSLDTGEEAEEVGLKGERSELLLSEKVVDARKSTWHVFPVSSSIQRLLDQGKSSLDVRIACEQCQESGASLVLLGKKKKKEEEGEGKKKGGGEGGAGADEEKEQSHRPFLMLQARQSEDHPHRRRRRGLECDGKVNICCKKQFFVSFKDIGWNDWIIAPSGYHANYCEGECPSHIAGTSGSSLSFHSTVINHYRMRGHSPFANLKSCCVPTKLRPMSMLYYDDGQNIIKKDIQNMIVEECGCS
modifications: homo sapiens
[3]
  maintenance of pre-X inactivation naïve state when ERKi is omitted or depleted: did not block loss X reactivation
